Source: publication PMC2876208 (Cancer, 2010)
Counter-ions that a name gives are not always drawn.

How the values were obtained:
CML = conditions: newly diagnosed patients with CML-CP; cited from earlier work
Bcr-Abl F317V = conditions: cited from earlier work
[1] = Phase 1 dose-escalation study: safety, adverse events; format: in vivo
Ph-positive CML or ALL = experiment: Phase 1 study: cytogenetic and hematologic response; format: in vivo, human
Lyn kinase = conditions: cited from earlier work
[2] = Phase 1 study: pharmacokinetics in patients; format: in vivo, human; conditions: for half-life: Mean half-life
[3] = cited from earlier work
[4] = molecular target: other Src-family member kinases; conditions: cited from earlier work
Bcr-Abl F317L = conditions: cited from earlier work
[5] = 30 mg/kg dose level, 4-week; ref data on file, 24; cited from earlier work
unmutated Bcr-Abl = conditions: cited from earlier work

In the case of `Cc1ccc(NC(=O)c2ccc(CN3CCN(C)CC3)cc2)cc1Nc1nccc(-c2cccnc2)n1` [imatinib, imatinib mesylate], the “Estimated 5 to 7-year survival rates” value (CML) is listed as “over 90%”.
For `Cc1ccc(NC(=O)c2ccc(CN3CC[C@H](N(C)C)C3)c(C(F)(F)F)c2)cc1Nc1nccc(-c2cncnc2)n1` [INNO-406], the “Sensitivity of mutation in vitro” value (Bcr-Abl F317V) is given as “sensitive”, the “Adverse events, NCI category infection” value ([1]; % of patients, N = 56) is given as 33.9% and the “Deaths since beginning treatment” value ([1]; all related to leukemia progression) is given as “Five”. For the same molecule, the “Adverse events, NCI category blood/bone marrow” value ([1]; human, in vivo) was 25.0%, the “Adverse events, NCI category cardiac general” value ([1]; human, in vivo) was 12.5% and the “Adverse events, NCI category constitutional symptoms” value ([1]; human, in vivo) was 48.2%. The “Adverse events, NCI category dermatology/skin” value ([1]; human, in vivo) was 28.6%, the “Adverse events, NCI category gastrointestinal” value ([1]; human, in vivo) was 64.3% and the “Adverse events, NCI category hemorrhage/bleeding” value ([1]; human, in vivo) was 10.7%. The “Adverse events, NCI category lymphatics” value ([1]; human, in vivo) was 25.0%, the “Adverse events, NCI category metabolic/laboratory” value ([1]; human, in vivo) was 73.2% and the “Adverse events, NCI category musculoskeletal/soft tissue” value ([1]; human, in vivo) was 10.7%. For the same molecule, the “Adverse events, NCI category neurology” value ([1]; human, in vivo) was 23.2%, the “Adverse events, NCI category pain” value ([1]; human, in vivo) was 58.9% and the “Adverse events, NCI category pulmonary/upper respiratory” value ([1]; human, in vivo) was 17.9%. For the same molecule, the “Drug-related acute renal failure” value ([1]; human, in vivo) was 2 (4) No. (%), the Drug-related elevated creatinine ([1]; human, in vivo) was 1 (2) No. (%) and the Drug-related hypertension ([1]; human, in vivo) was 1 (2) No. (%). The Drug-related hyperuricemia ([1]; human, in vivo) was 1 (2) No. (%), the “Drug-related increased ALT” value ([1]; human, in vivo) was 9 (16) No. (%) and the “Drug-related increased GGT” value ([1]; human, in vivo) was 2 (4) No. (%). For the same molecule, the Drug-related increased bilirubin ([1]; human, in vivo) was 2 (4) No. (%), the Drug-related intrahepatic cholestasis ([1]; human, in vivo) was 1 (2) No. (%) and the “Drug-related prolonged QTc interval” value ([1]; human, in vivo) was 1 (2) No. (%). The Drug-related thrombocytopenia ([1]; human, in vivo) was 1 (2) No. (%), the “Grade 3 thrombocytopenia, drug- and non-drug-related” value ([1]; human, in vivo) was 2 patients and the “Grade 4 thrombocytopenia, drug- and non-drug-related” value ([1]; human, in vivo) was 3 patients. The “QTc >500 msec” value ([1]; human, in vivo) was 1 patient, the “QTcB increased to grade 2” value ([1]; human, in vivo) was 4 patients and the “QTcF increased to grade 2” value ([1]; human, in vivo) was 1 patient. The “Pleural or pericardial effusions” value ([1]; in vivo) was “No cases”, the “Recommended phase 2 dose based on DLT and MTD” value ([1]; orally BID) was 240 mg and the “Minimal-Minor Cytogenetic Response” value (Ph-positive CML or ALL; 60 mg QD, N = 3) was 1 (33) n (%). For the same molecule, the “Complete Cytogenetic Response” value (Ph-positive CML or ALL; 120 mg BID, N = 6) was 1 (17) n (%), the “Complete Cytogenetic Response” value (Ph-positive CML or ALL; 120 mg QD, N = 6) was 1 (17) n (%) and the “Complete Cytogenetic Response” value (Ph-positive CML or ALL; 240 mg BID, N = 17) was 1 (6) n (%). For the same molecule, the “Partial Cytogenetic Response” value (Ph-positive CML or ALL; 240 mg BID, N = 17) was 2 (12) n (%), the “Minimal-Minor Cytogenetic Response” value (Ph-positive CML or ALL; 360 mg BID, N = 7) was 1 (14) n (%) and the “Partial Cytogenetic Response” value (Ph-positive CML or ALL; 480 mg BID, N = 5) was 1 (20) n (%). The “Response in patients with T315I mutations” value (Ph-positive CML or ALL; 4 patients with T315I mutations) was “None”, the “Complete Cytogenetic Response” value (Ph-positive CML or ALL; Total, all doses, N = 56) was 3 (5) n (%) and the “Minimal-Minor Cytogenetic Response” value (Ph-positive CML or ALL; Total, all doses, N = 56) was 2 (4) n (%). For the same molecule, the “Partial Cytogenetic Response” value (Ph-positive CML or ALL; Total, all doses, N = 56) was 3 (5) n (%), the “Complete and partial hematologic responses” value (Ph-positive CML or ALL; all doses) was 3 patients and the “Major cytogenetic response rate” value (Ph-positive CML or ALL; all patients enrolled (6 of 56 patients)) was 11%. The Major cytogenetic responses (Ph-positive CML or ALL; patients treated with doses of 240 mg BID or greater) was 4, the Responses (Ph-positive CML or ALL; patients with CML-AP, CML-BP, or Ph-positive ALL) was “No responses” and the “Major cytogenetic response rate” value (Ph-positive CML or ALL; patients with CML-CP (6 of 31 patients)) was 19%. For the same molecule, the Major cytogenetic responses (Ph-positive CML or ALL; patients with CML-CP, all doses) was 6 patients, the Kinase activity (Lyn kinase) was “specific Lyn kinase activity” and the “Mean time to achieve peak concentration” value ([2]; 240 mg BID cohort, SD = 0.5) was 1.3 h. For the same molecule, the “Mean (SD) accumulation factor” value ([2]; BID dosing) was 2.73 (4.96), the Accumulation ([2]; day 15, 360 and 480 mg BID cohorts) was “accumulation of INNO-406 was observed” and the “Dose proportionality of Cmax and AUC” value ([2]; entire study population, for AUC not demonstrable with BID dosing) was “dose proportional”. The Cmax ([2]; human, in vivo, oral, 240 mg) was 487 ng/mL, the half-life ([2]; human, in vivo, oral, BID dosing, day 1, SD 0.817) was 1.99 h and the half-life ([2]; human, in vivo, oral, BID dosing, day 15, SD 0.751) was 2.28 h. For the same molecule, the “In vivo potency relative to imatinib” value [3] was “at least 10 times”, the Kinase activity [4] was “no or limited activity” and the “Sensitivity of mutation in vitro” value (Bcr-Abl F317L) was “sensitive”. The Deaths [5] was “no deaths occurred” and the “Inhibition of autophosphorylation relative to imatinib” value (unmutated Bcr-Abl) was “more potently inhibited”.
